This assay deals with T1, full-length beta-Catenin (Uniprot ID P35222) (Homo sapiens, UniProt P35222).
T1 construct: 10 nM full-length beta-Catenin (Uniprot ID P35222)
T1 sequence (P35222 1-781): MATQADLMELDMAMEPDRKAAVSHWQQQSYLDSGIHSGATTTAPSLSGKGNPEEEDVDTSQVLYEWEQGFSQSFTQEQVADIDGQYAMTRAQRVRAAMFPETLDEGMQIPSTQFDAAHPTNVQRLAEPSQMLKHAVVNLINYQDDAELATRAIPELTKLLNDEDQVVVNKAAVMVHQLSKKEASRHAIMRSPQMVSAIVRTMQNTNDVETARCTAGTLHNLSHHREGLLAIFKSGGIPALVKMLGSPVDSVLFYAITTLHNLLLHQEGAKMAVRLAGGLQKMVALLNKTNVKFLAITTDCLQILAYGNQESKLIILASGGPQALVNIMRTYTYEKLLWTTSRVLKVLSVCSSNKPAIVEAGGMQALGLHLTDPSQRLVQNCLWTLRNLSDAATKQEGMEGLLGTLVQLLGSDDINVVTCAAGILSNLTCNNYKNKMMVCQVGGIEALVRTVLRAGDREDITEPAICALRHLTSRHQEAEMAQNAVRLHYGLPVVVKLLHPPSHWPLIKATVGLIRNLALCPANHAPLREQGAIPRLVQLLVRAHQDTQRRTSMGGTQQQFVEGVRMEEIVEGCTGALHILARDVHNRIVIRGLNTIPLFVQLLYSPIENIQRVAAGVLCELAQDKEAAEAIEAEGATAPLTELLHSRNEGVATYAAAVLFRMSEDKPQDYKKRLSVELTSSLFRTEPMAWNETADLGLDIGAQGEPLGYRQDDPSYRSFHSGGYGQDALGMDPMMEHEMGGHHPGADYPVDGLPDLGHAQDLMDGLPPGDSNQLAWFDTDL
The experiment in a line: Fluorescence polarization IC50 (beta-catenin / 5FAM-TCF4 10-53 competition). The format is binding. The following applies: fluorescence polarization; read-out: beta-Catenin FP IC50.
Take `CC(=O)N1CCC[C@]12CC=CCCC1(CCC=CCCCOC(=O)N3CC[C@@](C(=O)N[C@@H](Cc4ccsc4)C(=O)N[C@@H](Cc4csc5ccccc45)C(=O)N[C@@H](CCC(N)=O)C(N)=O)(C3)NC(=O)[C@H](CC(C)C)NC(=O)[C@H](Cc3ccccc3)NC(=O)[C@H](C)NC(=O)[C@H](C)NC(=O)[C@H](CC(=O)O)NC(=O)[C@H](CC(=O)O)NC1=O)NC(=O)[C@H](CC(C)(C)C)NC(=O)[C@H](CC(=O)O)NC2=O` (stereo partly drawn) [I-1972, Ac-PL3-Asp-Npg-B4-Asp-Asp-Ala-Ala-Phe-Leu-PyrS2-3Thi-BztA-Gln-NH2]: the IC50 stood at 689 nM.
On to `CC(=O)N1CCC[C@]12CC=CCCC1(CCC=CCCCCOC(=O)N3CC[C@@](C(=O)N[C@@H](Cc4ccsc4)C(=O)N[C@@H](Cc4csc5ccccc45)C(=O)N[C@@H](CCC(N)=O)C(N)=O)(C3)NC(=O)[C@H](CC(C)C)NC(=O)[C@H](Cc3ccccc3)NC(=O)[C@H](C)NC(=O)[C@H](C)NC(=O)[C@H](CC(=O)O)NC(=O)[C@H](CC(=O)O)NC1=O)NC(=O)[C@H](CC(C)(C)C)NC(=O)[C@H](CC(=O)O)NC2=O` (stereo partly drawn) [I-1973, Ac-PL3-Asp-Npg-B4-Asp-Asp-Ala-Ala-Phe-Leu-PyrS3-3Thi-BztA-Gln-NH2], for which the IC50 amounted to 797 nM.
Consider `CC(=O)N1CCC[C@]12CCCCCC1(CCCCCCOC(=O)N3CC[C@@](C(=O)N[C@@H](Cc4ccsc4)C(=O)N[C@@H](Cc4csc5ccccc45)C(=O)N[C@@H](CCC(N)=O)C(N)=O)(C3)NC(=O)[C@H](CC(C)C)NC(=O)[C@H](Cc3ccccc3)NC(=O)[C@H](C)NC(=O)[C@H](C)NC(=O)[C@H](CC(=O)O)NC(=O)[C@H](CC(=O)O)NC1=O)NC(=O)[C@H](CC(C)(C)C)NC(=O)[C@H](CC(=O)O)NC2=O` (stereo partly drawn) [I-1974, Ac-PL3-Asp-Npg-B4-Asp-Asp-Ala-Ala-Phe-Leu-PyrS1-3Thi-BztA-Gln-NH2], for which the IC50 was found to be 324 nM.
As for `CC(=O)N1CCC[C@]12CCCCCC1(CCCCCCCOC(=O)N3CC[C@@](C(=O)N[C@@H](Cc4ccsc4)C(=O)N[C@@H](Cc4csc5ccccc45)C(=O)N[C@@H](CCC(N)=O)C(N)=O)(C3)NC(=O)[C@H](CC(C)C)NC(=O)[C@H](Cc3ccccc3)NC(=O)[C@H](C)NC(=O)[C@H](C)NC(=O)[C@H](CC(=O)O)NC(=O)[C@H](CC(=O)O)NC1=O)NC(=O)[C@H](CC(C)(C)C)NC(=O)[C@H](CC(=O)O)NC2=O` (stereo partly drawn) [I-1975, Ac-PL3-Asp-Npg-B4-Asp-Asp-Ala-Ala-Phe-Leu-PyrS2-3Thi-BztA-Gln-NH2], the IC50 is 745 nM.
With `CC(=O)N1CCC[C@]12CCCCCC1(CCCCCCCCOC(=O)N3CC[C@@](C(=O)N[C@@H](Cc4ccsc4)C(=O)N[C@@H](Cc4csc5ccccc45)C(=O)N[C@@H](CCC(N)=O)C(N)=O)(C3)NC(=O)[C@H](CC(C)C)NC(=O)[C@H](Cc3ccccc3)NC(=O)[C@H](C)NC(=O)[C@H](C)NC(=O)[C@H](CC(=O)O)NC(=O)[C@H](CC(=O)O)NC1=O)NC(=O)[C@H](CC(C)(C)C)NC(=O)[C@H](CC(=O)O)NC2=O` (stereo partly drawn) [I-1976, Ac-PL3-Asp-Npg-B4-Asp-Asp-Ala-Ala-Phe-Leu-PyrS3-3Thi-BztA-Gln-NH2], the IC50 is 150 nM.
With `CC(=O)N1CCC[C@]12CC=CCCCC[C@@](C)(C(=O)N[C@@H](CC(=O)O)C(=O)N[C@@H](CC(=O)O)C(=O)N[C@@H](C)C(=O)N[C@@H](C)C(=O)N[C@@H](Cc1ccccc1)C(=O)N[C@@H](CC(C)C)C(=O)NC(C)(C)C(=O)N[C@@H](Cc1ccsc1)C(=O)N[C@@H](Cc1csc3ccccc13)C(=O)N[C@@H](CCC(N)=O)C(N)=O)NC(=O)[C@H](CC(C)(C)C)NC(=O)[C@H](CC(=O)O)NC2=O` [I-1977, Ac-PL3-Asp-Npg-S6-Asp-Asp-Ala-Ala-Phe-Leu-Aib-3Thi-BztA-Gln-NH2], the IC50 is 4280 nM.
